Data on 8 molecules can be found in PubChem BioAssay (NCI).

Common to all, as to assay: NCI tumour cell line growth inhibition, 48 h
In test [1] the test system is OVCAR-8 ovarian.
For test [2], the system named is TK-10 renal.
Test [3] relates to NCI/ADR-RES ovarian.
The test system of test [4] is HOP-62 NSCLC.
The test system of test [5] is HL-60(TB) leukemia.
Test [6] relates to EKVX NSCLC.
The test system of test [7] is K-562 leukemia.
Test [8] deals with UACC-62 melanoma.
In test [9] the test system is SNB-19 CNS.
Test [10] concerns NCI-H23 lung.
Test [11] has as its system A498 renal.
Test [12] has as its system SW-620 colon.
The subject of test [13] is RXF 393 renal.
The test system of test [14] is T-47D breast.
Test [15] has as its system NCI-H460 lung.
Test [16] has as its system HOP-92 NSCLC.
For test [17], the system named is OVCAR-5 ovarian.
The test system of test [18] is A549 NSCLC.
Test [19] concerns PC-3 prostate.
The test system of test [20] is BT-549 breast.

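96-well plates; 48 h exposure; 5 concentrations. Endpoints by linear interpolation between flanking doses. Not reached: highest tested concentration assigned. TGI: total growth inhibition.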 Where only a bound is given, the exact number is not on record here.

For the molecule `O=c1c(-c2c(-c3ccccc3)oc3ccc(Cl)cc3c2=O)c(-c2ccccc2)oc2ccc(Cl)cc12`, the TGI in test [1] was over 100 µM; in [2], over 100 µM; in [3] it was over 100 µM; in test [4], over 61.4 µM; in test [5] it was 0.606 µM; in [6], over 100 µM. For the same molecule, the TGI in test [7], in test [8], in test [9], in test [10], in test [11] and in test [12] was over 100 µM throughout. For the same molecule, the TGI was over 100 µM in test [13]; over 100 µM in [14]; over 100 µM in test [15]; over 95 µM in test [16]; over 100 µM in test [17]; over 100 µM in test [18]. The molecule further returned a TGI in [19] of over 100 µM.

Regarding `Nc1ccc(Oc2ccc(C3(c4ccc(Oc5ccc(N)cc5)cc4)C4CC5C6CC7CC5C3C(C7)C6C4)cc2)cc1`, the TGI in [1], in [20], in test [2], in test [3], in test [4] and in test [5] was over 100 µM throughout. In addition, the TGI in test [6] was over 100 µM; in test [7], over 100 µM; in [8] it was over 100 µM; in test [9], over 100 µM; in test [10] it was over 95.3 µM; in [11] it was 18.9 µM. Moreover, the TGI in [12] is over 100 µM; in test [13] it was 22.6 µM; in test [15], over 100 µM; in [16], 49 µM; in test [17], over 100 µM; in [18], over 100 µM. The molecule further registered a TGI in [19] of over 100 µM.

Consider `Cc1ccc2nc(N/N=C/c3ccc(C)s3)cc(C)c2c1`, for which the TGI is 31.3 µM in test [1]; 25.2 µM in test [2]; 47.2 µM in [3]; 31.3 µM in test [4]; 26.1 µM in test [6]; over 100 µM in [7]. Besides, the TGI in [8] worked out at 23.6 µM; in test [9], 27.2 µM; in test [10] it was 22 µM; in [12] it was 29.4 µM; in test [13] it was 28.3 µM; in test [14], 41.9 µM. Moreover, the TGI was determined as 21 µM in [16], 22 µM in test [17], 21.1 µM in test [18] and 24.1 µM in test [19].

Consider `O=C(/C=C/c1ccc(O)c(O)c1)OCc1ccccc1`, for which the TGI in test [2] is 54.3 µM; in [3], 72.2 µM; in [4], 72.4 µM; in test [5], 4.66 µM; in [6] it was over 100 µM; in [7], 61 µM. Further, the TGI was 53.9 µM in test [8]; 97.6 µM in test [9]; 60.3 µM in test [10]; 50.5 µM in test [11]; over 100 µM in test [12]; 65.4 µM in test [13]. The TGI in test [14] was 73.8 µM; in test [15], over 100 µM; in test [16], 58 µM; in test [17], over 100 µM; in test [18], 62.1 µM; in [19] it was 85.1 µM.

In the case of `CC(C)(C)OC(=O)[C@@H]1CCC(=S)N1Cc1ccccc1`, the TGI in test [1], in [20], in test [2], in test [3], in test [6] and in [7] was over 100 µM each time. For the same molecule, the TGI in test [8], in test [9], in test [10], in test [11], in test [12] and in [13] was over 100 µM throughout. Besides, the TGI in [15], in test [16], in [17], in test [18] and in test [19] was over 100 µM each time.

As for `C=C[C@]1(O)CCC[C@]2(C)C(=O)CCC12C` (some centres not stated), the TGI in [1], in test [3], in test [4], in test [5], in test [6] and in test [7] was over 100 µM each time. Besides, the TGI in [8], in test [9], in [10], in test [11], in test [12] and in test [13] was over 100 µM in each case. The TGI in test [14], in [15], in test [16], in test [17], in [18] and in test [19] was over 100 µM each time.

Take `Cc1ccc(/C=N/Nc2nc3ccccc3s2)s1`: the TGI was over 100 µM in [1]; over 100 µM in test [2]; over 100 µM in test [3]; 89.4 µM in test [4]; over 100 µM in test [5]; over 100 µM in test [6]. The TGI in test [7], in [8], in test [9], in [10], in [12] and in [13] was over 100 µM in each case. In addition, the TGI in test [14], in test [16], in test [17], in test [18] and in [19] was over 100 µM in each case.

For the molecule `CCCCCN1CCN(c2ncccn2)CC1`, the TGI in test [1], in test [2], in [3], in [4], in [5] and in [6] was over 100 µM throughout. The TGI in test [7], in test [8], in test [9], in [10], in test [11] and in test [12] was over 100 µM in each case. The TGI in test [13], in test [14], in [16], in test [17], in test [18] and in test [19] was over 100 µM each time.
